“Also recorded” adds a separate entry of the source.
B1: Comp-I: the VEGFR2 specific inhibitor represented by SEQ ID NO: 4; a VEGFR-2 binding 10Fn3 fibronectin based scaffold polypeptide (protein)
chain: GEVVAATPTSLLISWRHPHFPTRYYRITYGETGGNSPVQEFTVPLQPPTATISGLKPGVDYTITVYAVTDGRNGRLLSIPISINYRTEIDKPCQ

Tests used:
Format in all cases: in vivo, nude mice
[1] = tested on: Colo205 tumor; test: Colo205 xenograft: Comp-I, Temsirolimus and their combination (Example 1); conditions: for Colo205 tumor growth inhibition (in words): 21 days under treatment, FIG. 1, Table 2; for Tumor Volume Average: i.p., Comp-I 60 mg/kg TIW, Temsirolimus 20 mg/kg BIW, Combo 60/20 mg/kg TIW/BIW
Protocol: Human Colo205 cells were injected subcutaneously into the flanks of nude mice. Mice were randomized and treatments initiated when tumors reached an average size of 235 mm^3. Optimal doses of Comp-I (the VEGFR2 specific inhibitor represented by SEQ ID NO: 4) and Temsilorimus were administered intraperitoneally to Colo-205 tumor bearing-mice in doses and schedules as indicated in Table 1. Tumor growth was evaluated for 21 days under treatment (FIG. 1). Mice were taken off treatment after day 21 until day 57, with a continuous assessment of tumor growth (FIG. 2). Control was euthanized on Day 41. [table] Tumors were measured with calipers twice a week. Tumor volumes (mm^3) were calculated by the formula [π/6 (L×W^2)], where L represents the largest tumor diameter (mm) and W represents the smallest tumor diameter (mm). Tumor measurements were noted as absolute values. Animal body weights were determined weekly during the course of the experiment. Tumor Growth Inhibition (TGI) was calculated as the percent tumor growth of treated (T) groups from control group (vehicle, C). Tumor growth was calculated by subtracting initial tumor volume (at day 0) from the final tumor volume at the end of the experiment. TGI=(1−[T-T0]/[C-C0])*100.

[2] = tested on: Colo205 tumor; test: Colo205 xenograft: Comp-I vs. Bevacizumab, Temsirolimus added at Day 9 (Example 3); conditions: for Day 14 (TV, mm^3) (Mean) / Day 14 (TV, mm^3) Average ± STDErr: Temsirolimus 10 mg/kg BIW added on Day 9 to Bevacizumab 10 mg/kg BIW, Comp-I 80 mg/kg TIW or vehicle (n = 4); for Day 1 (TV, mm^3) (Mean) / Day 1 (TV, mm^3) Average ± STDErr: i.p.; for Day 1 (TV, mm^3) (Mean) / Day 1 (TV, mm^3) Average ± STDErr / Day 8 (TV, mm^3) (Mean) / Day 8 (TV, mm^3) Average ± STDErr / Percentage of tumor growth inhibition: Bevacizumab 10 mg/kg BIW, Comp-I 80 mg/kg TIW; for Day 8 (TV, mm^3) (Mean) / Day 8 (TV, mm^3) Average ± STDErr: Day 8 (before Temsirolimus)
Protocol: (§1) Tumors were measured with calipers twice a week. Tumor volumes (mm^3) were calculated by the formula [π/6 (L×W^2)], where L represents the largest tumor diameter (mm) and W represents the smallest tumor diameter (mm). Tumor measurements were noted as absolute values. Animal body weights were determined weekly during the course of the experiment. Tumor Growth Inhibition (TGI) was calculated as the percent tumor growth of treated (T) groups from control group (vehicle, C). Tumor growth was calculated by subtracting initial tumor volume (at day 0) from the final tumor volume at the end of the experiment. TGI=(1−[T-T0]/[C-C0])*100.
Human Colo205 cells were injected subcutaneously into the flanks of nude mice. Mice were randomized and treatments initiated when tumors reached an average size of 411 mm^3. Comp-I and Bevacizumab were administered intraperitoneally to Colo-205 tumor bearing-mice in doses and schedules as indicated in Table 5. Temsirolimus (10 mg/kg, BIW) was added to Comp-I and Bevacizumab treatments on Day 9. Half the mice (n=4) in the vehicle group were initiated on torisel the same day and the other half (n=4) remained under vehicle treatment Both anti-angiogenic treatments reduced […] to similar levels by Day 14 (FIG. 5).

[3] = tested on: Colo205 tumor; test: Colo205 xenograft: Comp-I vs. Bevacizumab, Temsirolimus added at Day 17 (Example 2); conditions: for Day 22 (TV, mm3) (Mean) / Day 22 (TV, mm3) Average ± STDErr: Temsirolimus 10 mg/kg BIW added on Day 17 to Bevacizumab 10 mg/kg BIW, Comp-I 80 mg/kg TIW or vehicle (n = 4); for Day 1 (TV, mm3) (Mean) / Day 1 (TV, mm3) Average ± STDErr: i.p.; for Day 1 (TV, mm3) (Mean) / Day 1 (TV, mm3) Average ± STDErr / Day 19 (TV, mm3) (Mean) / Day 19 (TV, mm3) Average ± STDErr / Percentage of tumor growth inhibition: Bevacizumab 10 mg/kg BIW, Comp-I 80 mg/kg TIW; for Day 19 (TV, mm3) (Mean) / Day 19 (TV, mm3) Average ± STDErr: Temsirolimus 10 mg/kg BIW added on Day 17; for Day 19 (TV, mm3) (Mean) / Day 19 (TV, mm3) Average ± STDErr / Percentage of tumor growth inhibition: Day 19; for Percentage of tumor growth inhibition: Temsirolimus added on Day 17
Protocol: as §1
Human Colo205 cells were injected subcutaneously into the flanks of nude mice. Mice were randomized and treatments initiated when tumors reached an average size of 167 mm^3. Comp-I and Bevacizumab were administered intraperitoneally to Colo-205 tumor bearing-mice in doses and schedules as indicated in Table 4. Temsirolimus treatment (10 mg/kg, BIW) was initiated on Day 17 added to Comp-I and Bevacizumab treatments on Day 17. Half the mice (n=4) in the vehicle group were initiated on torisel the same day and the other half (n=4) remained under vehicle treatment. Both anti-angiogenic treatments reduced […] to similar levels by Day 22 (FIG. 4). Percentage of tumor growth inhibition was determined as follows: Day 19/Comp-I (89%), Day 19/Bevacizumab (87%).

[4] = tested on: HT1080 tumor; test: HT1080 xenograft: Comp-I vs. Bevacizumab, Temsirolimus added at Day 23 (Example 4); conditions: for Day 1 (TV, mm^3) (Mean) / Day 1 (TV, mm^3) Average ± STDErr / Day 23 (TV, mm^3) (Mean) / Day 23 (TV, mm^3) Average ± STDErr: i.p.
Protocol: Human HT1080 cells were injected subcutaneously into the flanks of nude mice. Mice were randomized and treatments initiated when tumors reached an average size of 201 mm^3. Comp-I and Bevacizumab were administered intraperitoneally to HT1080 tumor bearing-mice in doses and schedules as indicated in Table 6. Temsirolimus (10 mg/kg, BIW) was added to Comp-I and Bevacizumab treatments on Day 23. Both anti-angiogenic treatments reduced […] as measured on Day 27 (FIG. 6).

[5] = Bevacizumab 5 mg/kg BIW, Comp-I 100 mg/kg TIW
[6] = QW groups: Bevacizumab 5 mg/kg QW, Comp-I 100 mg/kg QW
[7] = Day 11, Temsirolimus 10 mg/kg BIW added on Day 9

Molecule	Colo205 tumor growth inhibition (in words) [1]	Tumor Volume Average ([1]; Day 1)	Tumor Volume Average ([1]; Day 5)	Tumor Volume Average ([1]; Day 8)	Tumor Volume Average ([1]; Day 11)	Tumor Volume Average ([1]; Day 14)	Tumor Volume Average ([1]; Day 19)	Tumor Volume Average ([1]; Day 21)	Day 14 (TV, mm^3) (Mean) [2]	Day 14 (TV, mm^3) Average ± STDErr [2]	Day 22 (TV, mm3) (Mean) [3]	Day 22 (TV, mm3) Average ± STDErr [3]	Day 1 (TV, mm^3) (Mean) [4, 5]	Day 1 (TV, mm^3) Average ± STDErr [4, 5]	Day 1 (TV, mm^3) (Mean) [4, 6]	Day 1 (TV, mm^3) Average ± STDErr [4, 6]	Day 23 (TV, mm^3) (Mean) [4, 5]	Day 23 (TV, mm^3) Average ± STDErr [4, 5]	Day 23 (TV, mm^3) (Mean) [4, 6]	Day 23 (TV, mm^3) Average ± STDErr [4, 6]	other results
CO[C@H]1C[C@@H]2CC[C@@H](C)[C@@](O)(O2)C(=O)C(=O)N2CCCC[C@H]2C(=O)O[C@H]([C@H](C)C[C@@H]2CC[C@@H](OC(=O)C(C)(CO)CO)[C@H](OC)C2)CC(=O)[C@H](C)/C=C(\C)[C@@H](O)[C@@H](OC)C(=O)[C@H](C)C[C@H](C)/C=C/C=C/C=C/1C [Temsirolimus, temsirolimus]	equally inhibited	237.19 mm^3	287.19 mm^3	313.73 mm^3	354.14 mm^3	378.44 mm^3	395.95 mm^3	422.42 mm^3	821.1 mm^3	849.6 ± 106.6 mm^3	667.5 mm3	612.3 ± 99.5 mm3	–	–	–	–	–	–	–	–	–
Bevacizumab: anti-angiogenic treatment; Bevacizumab-mediated VEGF inhibition	–	–	–	–	–	–	–	–	458.9 mm^3	455.1 ± 36.2 mm^3	250.7 mm3	246.5 ± 21.2 mm3	191.9 mm^3	201.6 ± 19.1 mm^3	195.8 mm^3	202.0 ± 18.8 mm^3	517.4 mm^3	486.9 ± 34.6 mm^3	598.3 mm^3	619.3 ± 69.6 mm^3	Day 1 (TV, mm^3) (Mean) [2]: (398.6) mm^3; Day 1 (TV, mm^3) Average ± STDErr [2]: 413.0 ± 32.9 mm^3; Day 8 (TV, mm^3) (Mean) [2]: (511.8) mm^3; Day 8 (TV, mm^3) Average ± STDErr [2]: 519.0 ± 50.0 mm^3; Percentage of tumor growth inhibition ([2]; Day 8): 38.99%; Percentage of tumor growth inhibition [2, 7]: 82.2%; Day 1 (TV, mm3) (Mean) [3]: (166.7) mm3; Day 1 (TV, mm3) Average ± STDErr [3]: 167.7 ± 7.7 mm3; Day 19 (TV, mm3) (Mean) [3]: (299.2) mm3; Day 19 (TV, mm3) Average ± STDErr [3]: 290.3 ± 24.6 mm3; Percentage of tumor growth inhibition [3]: 87%
B1	inhibits Colo205 tumor growth to the same extent as the mTOR inhibitor Temsirolimus; also recorded: equally inhibited	235.25 mm^3	301.95 mm^3	325.42 mm^3	369.21 mm^3	403.32 mm^3	426.71 mm^3	455.84 mm^3	449.2 mm^3	444.6 ± 30.2 mm^3	247.1 mm3	239.4 ± 18.3 mm3	183.4 mm^3	205.1 ± 20.9 mm^3	207.0 mm^3	203.4 ± 18.7 mm^3	460.5 mm^3	432.8 ± 23.6 mm^3	492.9 mm^3	533.4 ± 47.9 mm^3	sensitivity of tumor growth, Comp-I vs. Bevacizumab (in words) ([4]; HT1080 model): tumor growth is more sensitive to Comp-1-mediated VEGFR-2 inhibition than to Bevacizumab-mediated VEGF inhibition; Day 1 (TV, mm^3) (Mean) [2]: (417.2) mm^3; Day 1 (TV, mm^3) Average ± STDErr [2]: 413.5 ± 28.7 mm^3; Day 8 (TV, mm^3) (Mean) [2]: (505.8) mm^3; Day 8 (TV, mm^3) Average ± STDErr [2]: 502.5 ± 33.6 mm^3; Percentage of tumor growth inhibition ([2]; Day 8): 53.03%; Percentage of tumor growth inhibition [2, 7]: 91.5%; Day 1 (TV, mm3) (Mean) [3]: (166.2) mm3; Day 1 (TV, mm3) Average ± STDErr [3]: 167.4 ± 8.1 mm3; Day 19 (TV, mm3) (Mean) [3]: (293.1) mm3; Day 19 (TV, mm3) Average ± STDErr [3]: 289.4 ± 21.5 mm3; Percentage of tumor growth inhibition [3]: 89%

Source: US20110034384A1, “COMBINATION VEGFR2 THERAPY WITH mTOR INHIBITORS” (Bristol-Myers Squibb Company, priority 2007, published 2011)
